Tests used:
[1] = Aggregation of synuclein proteins under high temperature conditions (SDS-PAGE/Coomassie brilliant blue); format: physicochemical; details: 20 µM protein, pH 6.9, 65 °C, 0, 8 and 20 hours
Method: Each of the protein samples (20 µM) was incubated under pH 6.9, 65° C. conditions for 0, 8, and 20 hours. The incubated samples were run over SDS-PAGE and the resulting protein bands visualized by Coomassie/brilliant blue staining (FIG. 2).

[2] = tested on: α-synuclein tg mice; experiment: Bigenic crosses: β-synuclein overexpression in α-synuclein tg mice (rotorod, neuropathological analysis); format: in vivo
Excerpt: Motor deficits in Lewy body disease are associated with degeneration of the nigral dopaminergic neurons projecting to the striatum. To determine if loss of dopaminergic input to the striatum in transgenic mice is associated with Parkinson's disease related neurological impairments, mice were examined with a rotorod test, a behavioral testing mechanism well known to those familiar with such procedures. […] The dopaminergic and behavioral deficits were detected only in the high expression line and not in low-expression lines. […] This may lead to the conclusion that a critical threshold of α-synuclein accumulation is required for dopaminergic and behavioral deficits to become detectable. None-the-less, the evaluation of such neurophysiological characteristics, as previously described, are well known to those of skill in such evaluations. As such, it is apparent that the increased expression of wild-type α-synuclein plays a key role in the pathogenesis of neurodegenerative conditions associated with amyloidogenesis.

[3] = tested on: B103 neuroblastoma cells; experiment: Aβ cytotoxicity in B103 neuroblastoma cells; format: cell-based; details: for effect on Aβ cytotoxicity / cell survival: Aβ 20 µM, serum-free, three days, protein 20 µM
Method: When B103 neuroblastoma cells were incubated with Aβ (20 µM) under serum-free conditions for three days, dead cells become prominent due to the cytotoxic effects of Aβ.

[4] = tested on: GT1-7 murine hypothalamic neuronal cells; experiment: GT1-7 cells overexpressing α-synuclein: mitochondrial alterations and oxidative stress; format: cell-based
Method: To determine if the overexpression of α-synuclein causes dysregulated neuronal function, GT1-7 cells were transfected with the mammalian expression vector pCR3.1 (Invitrogen) using standard transfection protocols well known in the art. The cells were transfected with or without insertion of murine α-synuclein cDNA. The resulting expression of α-synuclein was measured at both mRNA and protein levels using RPA and immunoblotting analysis. Clones which either overexpressed or underexpressed α-synuclein (via transfection with an anti-sense plasmid) were selected and analyzed. […] These alterations were ameliorated by pretreatment with the anti-oxidant, vitamin E. Furthermore, α-synuclein overexpression in GT1-7 cells results in the formation of α-synuclein—immunopositive inclusion-like structures.

[5] = tested on: B103 cells; experiment: B103 cells overexpressing synuclein: cell adhesion and neurite extension; format: cell-based; details: catalase 100 µg/ml, superoxide dismutase 100 U/ml, vitamin E 500 µM
[6] = target: SDS-resistant complexes of α-synuclein and Aβ1-40 (Homo sapiens, UniProt P37840); experiment: Formation of SDS-resistant complexes of α-synuclein and Aβ1-40, immunoblotting analysis; format: biochemical; details: 10 µM α-synuclein, 10 µM Aβ1-40, 100 µM peptide
Excerpt: Those in the art generally agree that β-Synuclein blocks Aβ proto-fibril formation by one of two possible mechanistic pathways. In the first pathway, inhibition is facilitated through indirectly blocking NAC or α-synuclein interaction with Aβ. In the second possible pathway, inhibition is facilitated by the direct blocking Aβ aggregation.

Substance: β-synuclein
- formation of aggregates / amyloid-like fibrils under high temperature conditions [1]: fails to show any formation of aggregates
- motor deficits, rotorod performance ([2]; β-synuclein overexpression in α-synuclein tg mice (bigenic crosses), FIG. 14): reduced the motor deficits
- neuronal loss ([2]; β-synuclein overexpression in α-synuclein tg mice, FIG. 16): reduction neuronal loss
- neuronal inclusions ([2]; β-synuclein overexpression in α-synuclein tg mice, neuropathological analysis, FIG. 15): reduction of neuronal inclusions
- effect on Aβ cytotoxicity / cell survival [3]: blocked the effects of this cytotoxicity
- effect on Aβ toxicity in neuroblastoma cell (summary statement) [3]: protective

Substance: β-synuclein .delta.1: β-synuclein mutant with amino acids 72-83 of NAC inserted by site-directed mutagenesis
- formation of aggregates / amyloid-like fibrils under high temperature conditions [1]: aggregated to form amyloid-like fibrils

Substance: vitamin E
- effect of pretreatment on alterations caused by α-synuclein overexpression (mitochondrial alterations, free radicals, glutathione, gonadotropin-releasing hormone secretion) [4]: ameliorated
- effect of anti-oxidants on altered adhesion and neurite outgrowth of synuclein overexpressing cells [5]: little effect

Substance: 51-60 (Seq ID #11): synthetic peptide, amino acids 51-61 of β-synuclein: Gly Val Ala Ser Val Ala Glu Lys Thr Lys Glu (GVASVAEKTKE; listed as Homo sapiens)
- suppression of the formation of SDS-resistant complexes of α-synuclein and Aβ1-40 [6]: significant suppression
- suppression of the formation of SDS-resistant complexes of α-synuclein and Aβ1-40 ([6]; listed as a.a. 51-61 of β-synuclein): suppression

Substance: catalase
- effect of anti-oxidants on altered adhesion and neurite outgrowth of synuclein overexpressing cells [5]: little effect

Substance: superoxide dismutase
- effect of anti-oxidants on altered adhesion and neurite outgrowth of synuclein overexpressing cells [5]: little effect

Substance: α-synuclein [reference compound]
- formation of aggregates / amyloid-like fibrils under high temperature conditions [1]: positive aggregation
- effect on Aβ cytotoxicity / cell survival [3]: detrimental to cell survival
- effect on Aβ toxicity in neuroblastoma cell (summary statement) [3]: enhances Aβ toxicity

Substance: β-synuclein .delta.2: β-synuclein mutant with amino acids 63-72 of NAC N-terminal inserted by site-directed mutagenesis
- formation of aggregates / amyloid-like fibrils under high temperature conditions [1]: aggregated to form amyloid-like fibrils
